Measured values taken from patent publication US8399378B2, “Use of neonicotinoids in pest control” (Syngenta Crop Protection LLC, priority 1998, dated 2013).

Experiments:
Type in all cases: in vivo
[1] = test system: Nilaparvata lugens; assay: Rice plant pot test, action against Nilaparvata lugens (systemic); conditions: 6 days; for control (percentage reduction in population, % action): placed in aqueous emulsion with 400 ppm compound; for control level: pot (B) conventional rice plants
Procedure: (§1) Rice plants expressing the δ-endotoxin CryIA(b) are planted in a in pot (A) and conventional rice plants are planted in a pot (B). Pot (A) is placed in an aqueous emulsion containing 400 ppm thiamethoxam, whereas plot (B) is place in a pot containing 400 ppm thiamethoxam and 400 ppm of the δ-endotoxin CryIA(b). The plants are subsequently infected with Nilaparvata lugens larvae of the second and third stage. The test is evaluated after 6 days.
The percentage reduction in population (% action) is determined by comparing the number of dead pests on the plants of pot (A) with that on the plants of pot (B).
as §1, with “CryIA(c)” for “CryIA(b)”, “CryIA(c).” for “CryIA(b).”

[2] = test system: Spodoptera littoralis; assay: Spray test on young cotton plants, action against Spodoptera littoralis larvae
From the text: (§2) Young transgenic cotton plants which express the δ-endotoxin CryIIIA are sprayed with an aqueous emulsion spray mixture comprising 100, 50, 10, 5, 1 ppm of imidacloprid respectively. After the spray coating has dried on, the cotton plants are populated with 10 adult Anthonomus grandis, 10 Spodoptera littoralis larvae or 10 Heliothis virescens larvae respectively and introduced into a plastic container. Evaluation takes place 3 to 10 days later.
as §2, with “thiamethoxam” for “imidacloprid”
as §2, with “Ti-435” for “imidacloprid”
as §2, with “CryIa(c)” for “CryIIIA”, “Ti-435” for “imidacloprid”
as §2, with “CryIa(c)” for “CryIIIA”, “thiamethoxam” for “imidacloprid”
as §2, with “CryIa(c)” for “CryIIIA”

[3] = test system: Anthonomus grandis; assay: Spray test on young cotton plants, action against Anthonomus grandis adults; conditions: spray 100, 50, 10, 5, 1 ppm, evaluation 3 to 10 days
From the text: as §2
as §2, with “thiamethoxam” for “imidacloprid”
as §2, with “Ti-435” for “imidacloprid”
as §2, with “CryIa(c)” for “CryIIIA”, “Ti-435” for “imidacloprid”
as §2, with “CryIa(c)” for “CryIIIA”, “thiamethoxam” for “imidacloprid”
as §2, with “CryIa(c)” for “CryIIIA”

[4] = test system: Heliothis spp.; assay: Maize plot spray test (KnockOut vs conventional maize), action against Heliothis spp.; conditions: 6 days
Procedure: (§3) A plot (a) planted with maize cv. KnockOut® and an adjacent plot (b) of the same size which is planted with conventional maize, both showing natural infestation with Ostrinia nubilalis, Spodoptera spp. or Heliothis, are sprayed with an aqueous emulsion spray mixture comprising 200, 100, 50, 10, 5, 1 ppm of Ti-435. Immediately afterwards, plot (b) is treated with an emulsion spray mixture comprising 200, 100, 50, 10, 5, 1 ppm of the endotoxin expressed by KnockOut®. Evaluation takes place 6 days later. The percentage reduction in population (% action) is determined by comparing the number of dead pests on the plants of plot (a) with that on the plants of plot (b).
as §3, with “thiamethoxam.” for “Ti-435.”
as §3, with “imidacloprid.” for “Ti-435.”

[5] = test system: Diabrotica balteata; assay: Maize seedling spray test, action against Diabrotica balteata; conditions: 6 days
Procedure: A plot (a) planted with maize seedlings cv. KnockOut® and an adjacent plot (b) of the same size which is planted with conventional maize are sprayed with an aqueous emulsion of a spray mixture comprising 400 ppm thiamethoxam. Immediately afterwards, plot (b) is treated with an emulsion spray mixture comprising 400 ppm of the endotoxin expressed by KnockOut®. After the spray coating has dried on, the seedlings are populated with 10 Diabrotica balteata larvae in the second stage and transferred to a plastic container. The test is evaluated 6 days later. The percentage reduction in population (% action) is determined by comparing the number of dead pests on the plants of plot (a) with that on the plants of plot (b).

CN1COCN(Cc2cnc(Cl)s2)/C1=N\[N+](=O)[O-] [thiamethoxam, 5-(2-Chlorthiazol-5-ylmethyl)-3-methyl-4-nitroimino-perhydro-1,3,5-oxadiazin]
Improved control: control (percentage reduction in population, % action) ([1]; pot (A) rice plants expressing δ-endotoxin CryIa(b)) | control (percentage reduction in population, % action) ([1]; pot (A) rice plants expressing δ-endotoxin CryIa(c)) | control (percentage reduction in population, % action) ([4]; plot (a) maize cv. KnockOut, spray 200, 100, 50, 10, 5, 1 ppm, natural infestation) | control (percentage reduction in population, % action) ([5]; plot (a) maize seedlings cv. KnockOut, spray 400 ppm, larvae in the second stage)
insufficient: control of the tested insects (percentage reduction in population or feeding damage, % action) ([2]; non-transgenic cotton treated with compound and conventional CryIIIA-toxin, each 100, 50, 10, 5, 1 ppm, comparison arm for CryIa(c) cotton)
superior: control of the tested insects (percentage reduction in population or feeding damage, % action) ([2]; transgenic cotton expressing δ-endotoxin CryIa(c), spray 100, 50, 10, 5, 1 ppm, evaluation 3 to 10 days) | control of the tested insects (percentage reduction in population or feeding damage, % action) ([3]; transgenic cotton expressing δ-endotoxin CryIIIA, compared with non-transgenic plant) | control of the tested insects (percentage reduction in population or feeding damage, % action) ([3]; transgenic cotton expressing δ-endotoxin CryIa(c))
≤ 60%: control level ([1]; 400 ppm compound and 400 ppm δ-endotoxin CryIA(b)) | control level ([1]; 400 ppm compound and 400 ppm δ-endotoxin CryIA(c)) | control level ([4]; plot (b) conventional maize, compound 200, 100, 50, 10, 5, 1 ppm, then same ppm of the endotoxin expressed by KnockOut) | control level ([5]; plot (b) conventional maize, 400 ppm compound, then 400 ppm of the endotoxin expressed by KnockOut)
